Columns and labels:
[1] = system: rat model of autoimmune disease; details: cited from earlier work
RET = details: biochemical assay; cited from earlier work
[2] = system: phosphorylation of STAT3 at Y705; assay: immunoblotting of p-STAT3 in IL-6/IL-10 stimulated DLBCL cell lines; type: cell-based; details: 3 μM, IL-6 and IL-10 stimulated ABC and GCB cell lines
Experimental: (§1) Immunoblotting were performed as previously described. Antibodies including total STAT3, SYK, PLCγ2, AKT, ERK1/2, PARP, caspase 3, and phosphorylated STAT3 (S727), STAT3 (Y705), SYK (Y525/526), PLCγ2 (Y759), PLCγ2 (Y1217), AKT (S473), ERK1/2 (Y204) and RB (S807/811) were purchased from Cell Signaling (Danvers, MA). Cyclin E antibody was purchased from Santa Cruz Biotechnology (Dallas, TX), and β-actin antibody was purchased from Sigma-Aldrich (St Louis, MO). Antibodies used in phosphoflow assay, including phosphorylated STAT3 (S727), SYK (Y525/526), PLCγ2 (Y759), AKT (S473), and ERK1/2 (Y204) were purchased from BD Biosciences (San Jose, CA).

FMS = details: biochemical assay; cited from earlier work
p-STAT3, p-AKT and p-ERK = assay: phospho-flow assay in anti-BCR stimulated primary DLBCL cells; type: cell-based, human; details: 0.5 μM or 1 μM, 6 h, then IgM/IgG 15 min, six primary DLBCL samples
Experimental: GCB cell lines OCI-LY1, OCI-LY4, OCI-LY8, OCI-LY18, SUDHL6 and VAL were cultured in Iscove's Modified Dulbecco's Medium (IMDM) supplemented with 20% Fetal Bovine Serum (FBS) and 100 μg/mL penicillin/streptomycin. ABC cell lines SUDHL2 and HBL1 were cultured in RPMI1640 supplemented with 20% FBS and 100 μg/mL penicillin/streptomycin. OCI-LY3 cells were grown in RPMI1640 supplemented with 20% FBS, 100 μg/ml penicillin/streptomycin and HEPES. ABC cell lines OCI-LY10 was cultured in Iscove's Modified Dulbecco's Medium (IMDM) supplemented with 20% human serum and 100 μg/mL penicillin/streptomycin. ABC cell line U2932 was cultured in high glucose RPMI1640 supplemented with 20% FBS, 100 μg/ml penicillin/streptomycin. All cells were maintained in a humidified 37°C/5% CO2 incubator. Frozen primary DLBCL cells were obtained from the tumor bank of the Department of Pathology at Weill Cornell Medical College after Institutional Review Board review and approval. All primary cells were thawed as previously described and cultured in above conditions at 37°C for 6 h in the presence or absence of cerdulatinib followed by BCR stimulations with 5 μg/mL of IgM and IgG. The clinical characteristics of these patients are listed in the Supplemental Table 1. Cerdulatinib was kindly provided by Portola Pharmaceuticals Inc. (South San Francisco, CA) and stored as 10 mM stock at −20°C. […]

CHK1 = details: biochemical assay; cited from earlier work
MST2 = details: biochemical assay; cited from earlier work
ABC DLBCL cell lines = assay: MTT assay, ABC cell lines; type: cell-based; details: ABC cell lines with relatively higher total and phosphorylated STAT3, 72 h
Experimental: (§2) DLBCL cell lines were treated with various concentrations of cerdulatinib for up to 72 h. The metabolic activities of cells were determined with MTT assay according to manufacturer's instruction (Roche Applied Science, Indianapolis, IN) at 72 h time point. IC50 was calculated using the Sigma Plot generated with GraphPad Prism 6 software (GraphPad, La Jolla, CA). Cell growth was measured at every 24 h counting live cells with flow cytometry as previously described. Cells were collected every 24 h and cell viability was determined by the PE Annexin V Apoptosis Detection Kit I (BD Biosciences).

DLBCL cell lines = assay: annexin V / 7-AAD cell viability by flow cytometry; type: cell-based; details: all tested cell lines with the exception of LY18; up to 72 h; concentration- and time-dependent
Experimental: as §2

RSK4 = details: biochemical assay; cited from earlier work
LY18 cells = assay: PARP and caspase 3 cleavage, Western blotting; type: cell-based; details: LY18, 48 h
Experimental: as §1

[3] = system: panel of DLBCL cell lines; assay: MTT assay, whole panel; type: cell-based; details: all eleven DLBCL cell lines, 72 h
Experimental: as §2

TYK2 = details: biochemical assay; cited from earlier work
[4] = system: BCR-stimulated DLBCL cells; assay: BrdU S-phase analysis under BCR stimulation; type: cell-based; details: 3 μM, 48 h, anti-IgM and anti-IgG stimulation
Experimental: DLBCL cells were treated with various concentrations of cerdulatinib for 48 h. Cells were incubated with 10 μM BrdU (BD Biosciences, San Jose, CA) at 37°C for 2 h, and stained with PE conjugated anti-BrdU antibody (BD Biosciences) according to the supplier's manual. The percentage of cell cycle distribution was analyzed with FlowJo (Tree Star Inc. Ashland, OR).

LYN = details: cited from earlier work
[5] = system: splenomegaly induced by chronic BCR stimulation; details: mice; cited from earlier work
AMPK = details: biochemical assay; cited from earlier work
ZAP70 = details: cited from earlier work
JAK1 = details: biochemical assay; cited from earlier work
[6] = system: primary CLL cells with the BTK C481S mutation; details: cited from earlier work
ITK = details: biochemical assay; cited from earlier work
GCK = details: biochemical assay; cited from earlier work
[7] = system: BCR-stimulated DLBCL cells; assay: annexin V / 7-AAD viability under BCR stimulation; type: cell-based; details: 3 μM, 48 h, anti-IgM and anti-IgG stimulation, all cell lines tested
Experimental: as §2

JNK3 = details: biochemical assay; cited from earlier work
[8] = system: primary human DLBCL samples; assay: MTT viability of primary DLBCL samples; type: cell-based; details: 0.5 μM and 1 μM, 72 h, six primary samples
Experimental: GCB cell lines OCI-LY1, OCI-LY4, OCI-LY8, OCI-LY18, SUDHL6 and VAL were cultured in Iscove's Modified Dulbecco's Medium (IMDM) supplemented with 20% Fetal Bovine Serum (FBS) and 100 μg/mL penicillin/streptomycin. ABC cell lines SUDHL2 and HBL1 were cultured in RPMI1640 supplemented with 20% FBS and 100 μg/mL penicillin/streptomycin. OCI-LY3 cells were grown in RPMI1640 supplemented with 20% FBS, 100 μg/ml penicillin/streptomycin and HEPES. ABC cell lines OCI-LY10 was cultured in Iscove's Modified Dulbecco's Medium (IMDM) supplemented with 20% human serum and 100 μg/mL penicillin/streptomycin. ABC cell line U2932 was cultured in high glucose RPMI1640 supplemented with 20% FBS, 100 μg/ml penicillin/streptomycin. All cells were maintained in a humidified 37°C/5% CO2 incubator. […]
as §2

CCS(=O)(=O)N1CCN(c2ccc(Nc3ncc(C(N)=O)c(NC4CC4)n3)cc2)CC1 [cerdulatinib]
inflammation [1]: reduces inflammation | IC50 (RET): 105 nM | phosphorylation of STAT3 at Y705 [2]: completely blocked | IC50 (FMS): 5 nM | p-STAT3, p-AKT and p-ERK levels (p-STAT3, p-AKT and p-ERK): marked and simultaneous down-regulation | IC50 (CHK1): 42 nM | IC50 (MST2): 15 nM | IC50 (ABC DLBCL cell lines): 290 to 1800 nM | cell viability (annexin V-/7-AAD-) (DLBCL cell lines): reduced | IC50 (RSK4): 28 nM | PARP and caspase 3 cleavage (LY18 cells): little changes | IC50 [3]: ≤ 2000 nM | IC50 (TYK2): 0.5 nM | S-phase of BCR-stimulated tumor cells [4]: sensitive | cellular activity against LYN (LYN): lacking cellular activity | splenomegaly [5]: alleviates splenomegaly | IC50 (AMPK): 6 nM | cellular activity against ZAP70 (ZAP70): lacking cellular activity | IC50 (JAK1): 12 nM | proliferation of ibrutinib-resistant cells [6]: completely blocking | IC50 (ITK): 194 nM | IC50 (GCK): 18 nM | viability of stimulated DLBCL cells [7]: reduced | IC50 (JNK3): 18 nM | response of primary DLBCL cells (viability, MTT) [8]: responded to cerdulatinib in a concentration-dependent manner
